Patent US20070128217A1 (priority 2003, published 2007)

Key:
[1] = test system: control sera (pooled serum of ten healthy LUMC hospital workers; commercial negative donor pooled serum from the Dutch bloodbank); format: binding, human; parameters: Binding of Control serum LUMC to linear peptides / Binding of Control serum Blood-bank to linear peptides / Binding of Control serum LUMC to looped peptides / Binding of Control Serum Blood-Bank to Looped peptides / Binding of Control serum LUMC to linear peptides of the protein M of SARS-CoV Urbani / Binding of Control serum Blood-bank to linear peptides of the protein M of SARS-CoV Urbani / Binding of Control serum LUMC to looped peptides of the protein M of SARS-CoV Urbani / Binding of Control Serum Blood-Bank to Looped peptides of the protein M of SARS-CoV Urbani: unit not given here
[2] = test system: antibodies in sera from SARS patients (sera 1a, 1b, 2, 6, 37, 62, London, SARS-yellow, SARS-green); format: binding, human; parameters: Binding of serum 6 to linear peptides of protein X1 of SARS-CoV Urbani / Binding of serum 37 to linear peptides of protein X1 of SARS-CoV Urbani / Binding of serum 6 to looped/cyclic peptide (PEPSCAN-ELISA) / Binding of serum 37 to looped/cyclic peptide (PEPSCAN-ELISA) / Binding of serum 37 to looped/cyclic peptides of protein X1 of SARS-CoV Urbani / Binding of serum 6 to linear peptides of protein X2 / Binding of serum 37 to linear peptides of protein X2 / Binding of serum 37 to looped/cyclic peptides of protein X2 of SARS-CoV Urbani / Binding of serum 6 to linear peptides of protein M of SARS-CoV Urbani / Binding of serum 37 to linear peptides of protein M of SARS-CoV Urbani / Binding of serum 6 to looped/cyclic peptides of protein M of SARS-CoV Urbani / Binding of serum 37 to looped/cyclic peptides of protein M of SARS-CoV Urbani / Binding of serum 6 to linear peptides of protein X3 of SARS-CoV Urbani / Binding of serum 37 to linear peptides of protein X3 of SARS-CoV Urbani / Binding of serum 37 to looped/cyclic peptides of protein X3 of SARS-CoV Urbani / Binding of serum 6 to linear peptides of protein X4 of SARS-CoV Urbani / Binding of serum 37 to linear peptides of protein X4 of SARS-CoV Urbani / Binding of serum 37 to looped/cyclic peptides of protein X4 of SARS-CoV Urbani / Binding of serum 6 to linear peptides of protein X5 of SARS-CoV Urbani / Binding of serum 37 to linear peptides of protein X5 of SARS-CoV Urbani / Binding of serum 37 to looped/cyclic peptides of protein X5 of SARS-CoV Urbani / Binding of serum 6 to linear peptides of protein N of SARS-CoV Urbani / Binding of serum 37 to linear peptides of protein N of SARS-CoV Urbani / Binding of serum 6 to linear peptide (PEPSCAN-ELISA) / Binding of serum 1a to looped/cyclic peptides of protein N of SARS-CoV Urbani / Binding of serum 1b to looped/cyclic peptides of protein N of SARS-CoV Urbani / Binding of serum 2 to looped/cyclic peptides of protein N of SARS-CoV Urbani / Binding of serum 6 to looped/cyclic peptides of protein N of SARS-CoV Urbani / Binding of serum 37 to looped/cyclic peptides of protein N of SARS-CoV Urbani / Binding of serum 62 to looped/cyclic peptides of protein N of SARS-CoV Urbani / Binding of serum London to looped/cyclic peptides of protein N of SARS-CoV Urbani / Binding of serum SARS-green to looped/cyclic peptides of protein N of SARS-CoV Urbani: unit not given here
[3] = test system: recombinant human anti-SARS-CoV antibody 03-018; format: binding; parameters: Binding of antibody 03-018 to linear peptides of the N protein of SARS-CoV Urbani / Binding of antibody 03-018 to looped/cyclic peptides of the N protein of SARS-CoV Urbani: unit not given here
[4] = test system: rabbit serum obtained by immunizing a rabbit with the SARS-CoV strain Frankfurt 1; format: binding; parameters: Binding of a rabbit serum to linear peptides / Binding of a rabbit serum to looped peptides / Rabbit serum linear peptides / Rabbit serum looped peptides / Binding of a rabbit serum to linear peptides of protein N of SARS-CoV Urbani (Rabbit serum linear peptides) / Binding of a rabbit serum to looped/cyclic peptides of protein N of SARS-CoV Urbani (Rabbit serum looped peptides): unit not given here

Row | Sequence | Binding of Control Serum Blood-Bank to Looped peptides [1] | Binding of Control serum Blood-bank to linear peptides [1] | Binding of Control serum LUMC to linear peptides [1] | Binding of Control serum LUMC to looped peptides [1] | Binding of serum 1a to linear peptides of protein N of SARS-CoV Urbani [2] | Binding of serum 1a to looped/cyclic peptides of protein N of SARS-CoV Urbani [2] | Binding of serum 1b to linear peptides of protein N of SARS-CoV Urbani [2] | Binding of serum 1b to looped/cyclic peptides of protein N of SARS-CoV Urbani [2] | Binding of serum 2 to linear peptides of protein N of SARS-CoV Urbani [2] | Binding of serum 2 to looped/cyclic peptides of protein N of SARS-CoV Urbani [2] | Binding of serum 6 to looped/cyclic peptides of protein N of SARS-CoV Urbani [2] | Binding of serum 37 to looped/cyclic peptides of protein N of SARS-CoV Urbani [2] | Binding of serum 62 to looped/cyclic peptides of protein N of SARS-CoV Urbani [2] | Binding of serum London to looped/cyclic peptides of protein N of SARS-CoV Urbani [2] | Binding of serum SARS-green to looped/cyclic peptides of protein N of SARS-CoV Urbani [2] | Binding of serum SARS-yellow to looped/cyclic peptides of protein N of SARS-CoV Urbani [2] | Binding of antibody 03-018 to linear peptides of the N protein of SARS-CoV Urbani [3] | Binding of antibody 03-018 to looped/cyclic peptides of the N protein of SARS-CoV Urbani [3] | Binding of a rabbit serum to linear peptides of protein N of SARS-CoV Urbani (Rabbit serum linear peptides) [4] | Binding of a rabbit serum to looped/cyclic peptides of protein N of SARS-CoV Urbani (Rabbit serum looped peptides) [4] | also measured
1 | YGANKEGIVWVATEG | 0.7 | 0.6 | 0.6 | 0.7 | 0.3 | 0.4 | 0.1 | 0.3 | 0.2 | 0.5 | 0.3 | 0.8 | 0.7 | 0.4 | 0.4 | 0.7 | 0.1 | 0.2 | 0.1 | 0.5 | Binding of serum 6 to linear peptides of protein N of SARS-CoV Urbani [2]: 0.2; Binding of serum 37 to linear peptides of protein N of SARS-CoV Urbani [2]: 0.8; Binding of serum 62 to linear peptides of protein N of SARS-CoV Urbani [2]: 0.7; Binding of serum London to linear peptides of protein N of SARS-CoV Urbani [2]: 0.4; Binding of serum SARS-green to linear peptides of protein N of SARS-CoV Urbani [2]: 0.4; Binding of serum SARS-yellow to linear peptides of protein N of SARS-CoV Urbani [2]: 0.7
2 | TALALLLLDRLNQLE | 0.8 | 0.7 | 0.7 | 0.8 |  | 0.4 |  | 0.3 |  | 0.5 | 0.3 | 0.8 | 0.7 | 0.5 | 0.7 | 0.5 | 0.1 | 0.2 | 0.2 | 0.5 | Binding of serum 1a to linear peptide (PEPSCAN-ELISA) [2]: 0.3; Binding of serum 1b to linear peptide (PEPSCAN-ELISA) [2]: 0.2; Binding of serum 2 to linear peptide (PEPSCAN-ELISA) [2]: 0.2; Binding of serum 6 to linear peptide (PEPSCAN-ELISA) [2]: 0.2; Binding of serum 37 to linear peptide (PEPSCAN-ELISA) [2]: 0.7; Binding of serum 62 to linear peptide (PEPSCAN-ELISA) [2]: 0.7; Binding of serum London to linear peptide (PEPSCAN-ELISA) [2]: 0.5; Binding of serum SARS-green to linear peptide (PEPSCAN-ELISA) [2]: 0.8; Binding of serum SARS-yellow to linear peptide (PEPSCAN-ELISA) [2]: 0.6
3 | FYYLGTGPEASLPYG | 0.7 | 0.6 | 0.7 | 0.7 | 0.3 | 0.4 | 0.1 | 0.3 | 0.2 | 0.4 | 0.2 | 0.7 | 0.6 | 0.5 | 0.4 | 0.7 | 0.1 | 0.2 | 0.1 | 0.6 | Binding of serum 6 to linear peptides of protein N of SARS-CoV Urbani [2]: 0.2; Binding of serum 37 to linear peptides of protein N of SARS-CoV Urbani [2]: 0.6; Binding of serum 62 to linear peptides of protein N of SARS-CoV Urbani [2]: 0.7; Binding of serum London to linear peptides of protein N of SARS-CoV Urbani [2]: 0.5; Binding of serum SARS-green to linear peptides of protein N of SARS-CoV Urbani [2]: 0.4; Binding of serum SARS-yellow to linear peptides of protein N of SARS-CoV Urbani [2]: 0.7
4 | GMEVTPSGTWLTYHG |  |  |  |  | 0.3 | 0.4 | 0.1 | 0.2 | 0.1 | 0.4 | 0.3 | 0.7 | 0.8 | 0.5 | 0.4 | 0.5 | 0.1 | 0.2 | 0.1 | 0.4 | Control Serum Blood-Bank Looped peptides [1]: 0.7; Control serum Blood-bank linear peptides [1]: 0.6; Control serum LUMC linear peptides [1]: 0.6; Control serum LUMC looped peptides [1]: 0.7; Binding of serum 6 to linear peptides of protein N of SARS-CoV Urbani [2]: 0.2; Binding of serum 37 to linear peptides of protein N of SARS-CoV Urbani [2]: 0.5; Binding of serum 62 to linear peptides of protein N of SARS-CoV Urbani [2]: 0.6; Binding of serum London to linear peptides of protein N of SARS-CoV Urbani [2]: 0.5; Binding of serum SARS-green to linear peptides of protein N of SARS-CoV Urbani [2]: 0.2; Binding of serum SARS-yellow to linear peptides of protein N of SARS-CoV Urbani [2]: 0.7
